Measurements: paper PMC12308784, “Organometallic Half-Sandwich Complexes of 1,10-Phenanthroline Derivatives with Improved Solubility, Albumin-Binding, and Nanoformulation Potential Targeting Drug Resistance in Cancer” (Inorganic Chemistry, 2025)
Where “and” joins values, the source holds several entries; their conditions need not be identical. Equal entries are not always repeated. Where two headings read alike, the source gives them in different places.

Tests used:
MES-SA/B1-mOrange = test: fluorescent triple coculture cytotoxicity assay; format: cell-based, human; details: for SR (MES-SA/B1): selectivity ratio versus parental MES-SA
Source text: (§1) Cytotoxicity of the compounds were further tested also in an in vitro MDR model system, consisting of an MES-SA uterine sarcoma cell line, and its P-gp (ABCB1) overexpressing variants MES-SA/B1, that was genetically engineered to express P-gp, and MES-SA/Dx5, which acquired a P-gp-mediated MDR phenotype due to selection in doxorubicin. , The expression of different fluorescent proteins in each line (mCherry, mOrange, or eGFP) allowed coculturing of these three cell lines, providing more relevant data compared to monocultures, as the interaction between parental and resistant phenotypes is reflected in cytotoxicity.
(§2) Cytotoxicity of nanoformulated [RhCp*(BP)-Cl]-Cl with cross-linked HSA and HTP carriers was tested against the previously introduced triple coculture of fluorescent MES-SA cells with a slight difference. Namely, the media containing the dissolved products were removed from the wells, and fresh media was added prior to the measurement as the presence of cross-linked HSA and HTP formulations interfered with the fluorescence of the cells.
(§3) MDA-MB-231 breast adenocarcinoma and MCF-7 and T-47D invasive breast carcinomas were purchased from the Developmental Therapeutic Program of the National Cancer Institute (NIH, USA), and they were cultured in RPMI medium (Thermo Fisher). MES–SA and MES–SA/Dx5 uterine sarcoma cell lines were purchased from American Type Culture Collection and were kept in DMEM (Thermo Fisher). MES–SA/B1 was created by the transfection of the human MDR1 gene in MES–SA, and MES–SA mCherry, MES–SA/B1 mOrange, and MES–SA/Dx5 eGFP were engineered to stably express the respective fluorescent proteins, as described previously. Culture media were supplemented with 10% fetal bovine serum, 2 mM L-glutamine, 100 units/mL penicillin, and 100 μg/mL streptomycin (Thermo Fisher). Cells were kept at 37 °C under 5% CO2 and were negative for mycoplasma infection.
(§4) Cytotoxicity of the nonfluorescent cancer cells (MDA-MB-231, MCF-7, T-47D) were assessed with PrestoBlue cell viability reagent (Thermo Fisher). Briefly, 2500 cells/well were seeded on 384-well plates, and then the next day drugs were added. After 72 h incubation, PrestoBlue was added in a 10% final concentration, and after an hour of additional incubation, plates were measured with a PerkinElmer EnSpire plate reader at 555 nm/585 nm excitation/emission wavelengths. […] Drugs were added the following day, and the intensity of the fluorescent proteins were measured after 144 h incubation at the respective fluorescent channels (excitation/emission: eGFP: 485 nm/510 nm; mCherry: 585 nm/610 nm; mOrange: 545 nm/567 nm). pIC50 values were calculated by a custom program written by Judit Sessler in C#. IC50 values and standard deviation were calculated from average pIC50 values from at least 3 independent measurements. Since the IC50 values were obtained through nonlinear regression fitting of the viability vs. log(concentration) data, the resulting confidence intervals are inherently asymmetric (see pIC50 values and their corresponding SD in Tables S5 and S6).

MES-SA mCherry = test: fluorescent triple coculture cytotoxicity assay; format: cell-based, human
Source text: as §1, §2, §3, §4

MES-SA/Dx5-eGFP = test: fluorescent triple coculture cytotoxicity assay; format: cell-based, human; details: for SR (MES-SA/Dx5): selectivity ratio versus parental MES-SA
Source text: as §1, §2, §3, §4

[1] = system: MDA-MB-231, MCF-7 and T-47D breast cancer cell lines; test: PrestoBlue cytotoxicity, range over the three breast cancer lines; format: cell-based; details: MDA-MB-231, MCF-7, T-47D; 72 h
Experimental: The PHEN-derived ligands (DCP, BP) (together with PHEN for comparison) and the isolated complexes ([RuCym(DCP)-Cl]-Cl, [RhCp*(DCP)-Cl]-Cl, [RuCym(BP)-Cl]-Cl, [RhCp*(BP)-Cl]-Cl) were tested against the estrogen receptor (ER) negative MDA-MB-231, and the ER positive MCF-7 and T-47D breast cancer cell lines (Table , and Figure a for easier comparison).
as §3
Cytotoxicity of the nonfluorescent cancer cells (MDA-MB-231, MCF-7, T-47D) were assessed with PrestoBlue cell viability reagent (Thermo Fisher). Briefly, 2500 cells/well were seeded on 384-well plates, and then the next day drugs were added. After 72 h incubation, PrestoBlue was added in a 10% final concentration, and after an hour of additional incubation, plates were measured with a PerkinElmer EnSpire plate reader at 555 nm/585 nm excitation/emission wavelengths. Fluorescent cells (MES-SA mCherry, MES-SA/B1 mOrange, MES-SA/Dx5 eGFP) were admixed before seeding on 384-well plates at 800 cells/well density each, thus altogether 2400 cells/well. Drugs were added the following day, and the intensity of the fluorescent proteins were measured after 144 h incubation at the respective fluorescent channels (excitation/emission: eGFP: 485 nm/510 nm; mCherry: 585 nm/610 nm; mOrange: 545 nm/567 nm). pIC50 values were calculated by a custom program written by Judit Sessler in C#. IC50 values and standard deviation were calculated from average pIC50 values from at least 3 independent measurements.

[2] = n-octanol/water distribution coefficient, shake-flask; format: physicochemical; details: n-octanol/20 mM phosphate buffer, pH = 7.4, t = 25 °C; for logD at 4 h: n-octanol/buffered aqueous solution
Source text: The bioactive compounds must cross the cell membrane, which is influenced by their lipophilicity. Therefore, we characterized the lipophilicity of the complexes using n-octanol–water partitioning at three different chloride ion concentrations at pH 7.4. As the H2O/Cl^– exchange alters the charge of the complexes, it consequently affects their lipophilicity. The ratio of chlorido and aqua complexes depends on the actual Cl^– concentration and the chloride affinity of the complex. Chloride ion concentrations were chosen to mimic physiological conditions, specifically those found in blood (100 mM), cytosol (24 mM), and the nucleus (4 mM).
The traditional shake-flask method was used to obtain distribution coefficients of the ligands as well as of the complexes in n-octanol/buffered aqueous solution (20 mM phosphate, pH = 7.4) at different chloride ion concentrations (4, 24, and 100 mM) using UV–vis spectrophotometry (Agilent Cary 8454 diode array spectrophotometer) for the analysis. The compounds were dissolved in buffered aqueous solutions previously saturated with n-octanol. Then the aqueous and n-octanol phases were gently mixed in different volume ratios (using 1:60 for the ligands, 1:10 for the RhCp* and the RuCym complexes ratios of n-octanol to buffered aqueous solution volume) for 4 h, followed by phase separation. Then the UV–vis spectrum of the original aqueous sample and the aqueous and n-octanol phases was recorded and distribution coefficients (D) were calculated according to the formula described in our former work in detail.

[3] = Homo sapiens, MES-SA/B1-mOrange, coculture, 384-well plate, 144 h, read-out: IC50
[4] = Homo sapiens, Mes-Sa/B1 mOrange, 384-well plate, Table S6, read-out: pIC50 (mean) (converted)
[5] = Homo sapiens, MES-SA, 144 h, MES-SA mCherry, coculture, 384-well plate, 144 h, read-out: IC50
[6] = Homo sapiens, MES-SA, Mes-Sa mCherry, 384-well plate, Table S6, read-out: pIC50 (mean) (converted)
[7] = Homo sapiens, MES-SA/Dx5-eGFP, coculture, 384-well plate, 144 h, read-out: IC50
[8] = Homo sapiens, Mes-Sa/Dx5 eGFP, 384-well plate, Table S6, read-out: pIC50 (mean) (converted)
[9] = MES-SA mCherry, coculture, 384-well plate, 144 h, read-out: IC50
[10] = MES-SA/B1-mOrange, coculture, 384-well plate, 144 h, read-out: IC50
[11] = Mes-Sa/B1 mOrange, 384-well plate, Table S6
[12] = Mes-Sa mCherry, 384-well plate, Table S6
[13] = MES-SA/Dx5-eGFP, coculture, 384-well plate, 144 h, read-out: IC50
[14] = Mes-Sa/Dx5 eGFP, 384-well plate, Table S6

Row | Compound | IC50 (MES-SA/B1-mOrange; [3]) | IC50 (MES-SA/B1-mOrange; [4]) | SR (MES-SA/B1) (MES-SA/B1-mOrange; 384-well plate) | IC50 (MES-SA mCherry; [5]) | IC50 (MES-SA mCherry; [6]) | IC50 (MES-SA/Dx5-eGFP; [7]) | IC50 (MES-SA/Dx5-eGFP; [8]) | SR (MES-SA/Dx5) (MES-SA/Dx5-eGFP; 384-well plate) | IC50 [1] | logD at 4 h ([2]; c(Cl–) = 100 mM) | IC50 (MES-SA mCherry; [9]) | IC50 (MES-SA/B1-mOrange; [10]) | pIC50 (mean) (MES-SA/B1-mOrange; [11]) | pIC50 (mean) (MES-SA mCherry; [12]) | IC50 (MES-SA/Dx5-eGFP; [13]) | pIC50 (mean) (MES-SA/Dx5-eGFP; [14]) | logD ([2]; c(Cl–) = 4 mM) | logD ([2]; c(Cl–) = 24 mM) | logD ([2]; c(Cl–) = 100 mM) | further results
1 | c1ccc(-c2ccnc3c2ccc2c(-c4ccccc4)ccnc23)cc1 [BP, 4,7-diphenyl-1,10-phenanthroline] | 0.14 µM | 0.138 µM | 3.4 | 0.47 µM | 0.468 µM | 0.01 µM | 0.00851 µM | 54.7 | 0.59 to 0.76 µM | 3.69 |  |  |  |  |  |  |  |  |  | 
2 | Clc1ccnc2c1ccc1c(Cl)ccnc12 [DCP, 4,7-dichloro-1,10-phenanthroline] | 4.9 µM | 4.9 µM | 0.6 | 3.1 µM | 3.02 µM | 0.48 µM | 0.49 µM | 6.3 | 3.8 to 5.1 µM | 2.4 | 3.05 µM |  |  |  |  |  |  |  |  | 
3 | Cc1c(C)c(C)[c-](C)c1C.Clc1ccnc2c1ccc1c(Cl)ccnc12.[Cl-].[Cl-].[Rh+3] [RhCp*DCP, [Rh(III)(η^5-C5Me5)(4,7-dichloro-1,10-phenanthroline)Cl]Cl] |  |  | 0.7 |  |  |  |  | 5.6 | 5.9 to 7.6 µM |  |  | 6.38 µM | 5.20 | 5.38 | 0.75 µM | 6.12 | –1.03 ± 0.03 | –0.59 ± 0.02 | –0.38 ± 0.02 | IC50 (MES-SA mCherry; MES-SA mCherry, coculture, 384-well plate, 144 h, listed as [RhCp*(DCP)Cl]Cl, read-out: IC50): 4.2 µM and 4.22 µM
4 | Cc1ccc(C(C)C)cc1.[Cl-].[Cl-].[Ru+2].c1ccc(-c2ccnc3c2ccc2c(-c4ccccc4)ccnc23)cc1 [RuCymBP, [Ru(II)(η^6-p-cymene)(bathophenanthroline)Cl]Cl] |  |  | 0.01 |  |  |  |  | 0.01 | 1.2 to 1.9 µM |  | 0.53 µM | 55 µM | 4.26 | 6.28 | 41 µM | 4.39 | +1.46 ± 0.02 | +1.97 ± 0.02 | +2.48 ± 0.02 | 
5 | Cc1ccc(C(C)C)cc1.Clc1ccnc2c1ccc1c(Cl)ccnc12.[Cl-].[Cl-].[Ru+2] [RuCymDCP, [Ru(II)(η^6-p-cymene)(4,7-dichloro-1,10-phenanthroline)Cl]Cl] |  |  |  |  |  |  |  |  | > 75 µM |  | 65.6 µM | > 100 µM |  | 4.18 | > 100 µM |  | –0.55 ± 0.04 | +0.04 ± 0.12 | +0.35 ± 0.12 | 
6 | [Rh(III)(η^5-C5Me5)(bathophenanthroline)Cl]Cl [RhCp*BP] |  |  | 1.1 |  |  |  |  | 6.7 | 4.7 to 14.9 µM |  |  | 1.37 µM | 5.86 | 5.81 | 0.23 µM | 6.63 | +0.82 ± 0.01 | +1.35 ± 0.03 |  | IC50 (MES-SA/B1-mOrange; MES-SA/B1-mOrange, coculture, 96-well plate, media replaced before measurement, read-out: IC50): 2.43 µM; pIC50 (mean) (MES-SA/B1-mOrange; Mes-Sa/B1 mOrange, 96-well plate, Table S6): 5.61; SR (MES-SA/B1) (MES-SA/B1-mOrange; 96-well plate): 1.2; IC50 (MES-SA mCherry; MES-SA mCherry, coculture, 96-well plate, media replaced before measurement, read-out: IC50): 2.9 µM; IC50 (MES-SA mCherry; MES-SA mCherry, coculture, 384-well plate, 144 h, listed as [RhCp*(BP)Cl]Cl, read-out: IC50): 1.56 µM; pIC50 (mean) (MES-SA mCherry; Mes-Sa mCherry, 96-well plate, Table S6): 5.54; IC50 (MES-SA/Dx5-eGFP; MES-SA/Dx5-eGFP, coculture, 96-well plate, media replaced before measurement, read-out: IC50): 1.77 µM; pIC50 (mean) (MES-SA/Dx5-eGFP; Mes-Sa/Dx5 eGFP, 96-well plate, Table S6): 5.75; SR (MES-SA/Dx5) (MES-SA/Dx5-eGFP; 96-well plate): 1.6
